Measurements as given in US12685735B2 (Foghorn Therapeutics Inc., priority 2020, dated 2026).
Where two headings read alike, the source gives them in different places.

Tests used:
BRG-1 = BRG-1 (Homo sapiens, UniProt P51532); test: ATPase catalytic activity assay of BRG-1 (ADP-Glo); type: biochemical; conditions: ATPase catalytic activity, ADP-Glo; for IC50: read-out: BRG1 IC50 (μM)*; for Emax: read-out: BRG1 Max % Inhibition
Procedure, shortened: (§1)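 Luminescent ADP-Glo readout of ADP generated by ATP hydrolysis. Post-reaction: ATP depletion reagent, RT 40 min; detection reagent converting ADP→ATP, RT 60 min; luminescence read.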

BRM = BRM (Homo sapiens, UniProt P51531); test: ATPase catalytic activity assay of BRM (ADP-Glo); type: biochemical; conditions: for IC50: read-out: BRM IC50 (μM)*
Chain of BRM (P51531 whole entry): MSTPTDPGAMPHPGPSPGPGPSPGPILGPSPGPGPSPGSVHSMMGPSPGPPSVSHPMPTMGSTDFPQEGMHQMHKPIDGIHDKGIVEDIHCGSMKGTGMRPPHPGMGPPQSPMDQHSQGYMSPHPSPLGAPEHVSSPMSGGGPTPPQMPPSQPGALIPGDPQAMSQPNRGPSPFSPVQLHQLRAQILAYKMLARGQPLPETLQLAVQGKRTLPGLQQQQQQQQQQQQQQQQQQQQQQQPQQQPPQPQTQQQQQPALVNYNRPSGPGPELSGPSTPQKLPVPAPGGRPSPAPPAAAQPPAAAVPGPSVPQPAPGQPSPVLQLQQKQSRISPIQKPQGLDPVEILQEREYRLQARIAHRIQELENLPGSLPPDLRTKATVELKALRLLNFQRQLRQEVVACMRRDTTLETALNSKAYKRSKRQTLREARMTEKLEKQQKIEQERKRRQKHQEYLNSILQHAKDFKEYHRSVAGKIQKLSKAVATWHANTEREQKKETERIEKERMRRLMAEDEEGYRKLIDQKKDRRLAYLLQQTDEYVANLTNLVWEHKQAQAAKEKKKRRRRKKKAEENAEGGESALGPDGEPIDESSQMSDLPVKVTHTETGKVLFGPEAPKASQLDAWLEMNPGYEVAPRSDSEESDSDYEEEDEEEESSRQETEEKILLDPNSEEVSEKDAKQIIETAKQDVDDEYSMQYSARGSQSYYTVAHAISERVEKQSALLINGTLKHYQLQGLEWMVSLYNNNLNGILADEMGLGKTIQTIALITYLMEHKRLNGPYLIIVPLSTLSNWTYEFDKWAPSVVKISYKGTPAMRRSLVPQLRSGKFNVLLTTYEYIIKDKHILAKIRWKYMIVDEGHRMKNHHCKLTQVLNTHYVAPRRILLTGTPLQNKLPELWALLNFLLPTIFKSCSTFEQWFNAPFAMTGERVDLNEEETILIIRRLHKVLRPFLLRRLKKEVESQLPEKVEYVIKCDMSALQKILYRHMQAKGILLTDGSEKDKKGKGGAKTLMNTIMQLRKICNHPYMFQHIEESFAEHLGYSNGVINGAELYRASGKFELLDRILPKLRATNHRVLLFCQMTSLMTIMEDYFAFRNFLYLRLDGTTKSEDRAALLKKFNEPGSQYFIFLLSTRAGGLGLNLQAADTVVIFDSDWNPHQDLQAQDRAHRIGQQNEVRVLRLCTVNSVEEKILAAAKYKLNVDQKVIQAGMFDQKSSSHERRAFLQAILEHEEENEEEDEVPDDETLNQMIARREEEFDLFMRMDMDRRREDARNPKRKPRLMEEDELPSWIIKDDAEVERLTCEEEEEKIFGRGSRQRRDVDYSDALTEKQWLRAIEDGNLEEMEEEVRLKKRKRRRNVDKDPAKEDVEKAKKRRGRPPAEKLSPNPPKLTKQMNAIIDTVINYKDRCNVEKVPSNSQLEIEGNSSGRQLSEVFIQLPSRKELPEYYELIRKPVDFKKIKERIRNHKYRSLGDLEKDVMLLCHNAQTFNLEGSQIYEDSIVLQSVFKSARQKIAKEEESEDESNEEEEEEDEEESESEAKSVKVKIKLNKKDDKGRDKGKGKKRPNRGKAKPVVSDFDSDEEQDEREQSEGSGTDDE
Procedure, shortened: as §1

Chain of BRG-1 (P51532 whole entry): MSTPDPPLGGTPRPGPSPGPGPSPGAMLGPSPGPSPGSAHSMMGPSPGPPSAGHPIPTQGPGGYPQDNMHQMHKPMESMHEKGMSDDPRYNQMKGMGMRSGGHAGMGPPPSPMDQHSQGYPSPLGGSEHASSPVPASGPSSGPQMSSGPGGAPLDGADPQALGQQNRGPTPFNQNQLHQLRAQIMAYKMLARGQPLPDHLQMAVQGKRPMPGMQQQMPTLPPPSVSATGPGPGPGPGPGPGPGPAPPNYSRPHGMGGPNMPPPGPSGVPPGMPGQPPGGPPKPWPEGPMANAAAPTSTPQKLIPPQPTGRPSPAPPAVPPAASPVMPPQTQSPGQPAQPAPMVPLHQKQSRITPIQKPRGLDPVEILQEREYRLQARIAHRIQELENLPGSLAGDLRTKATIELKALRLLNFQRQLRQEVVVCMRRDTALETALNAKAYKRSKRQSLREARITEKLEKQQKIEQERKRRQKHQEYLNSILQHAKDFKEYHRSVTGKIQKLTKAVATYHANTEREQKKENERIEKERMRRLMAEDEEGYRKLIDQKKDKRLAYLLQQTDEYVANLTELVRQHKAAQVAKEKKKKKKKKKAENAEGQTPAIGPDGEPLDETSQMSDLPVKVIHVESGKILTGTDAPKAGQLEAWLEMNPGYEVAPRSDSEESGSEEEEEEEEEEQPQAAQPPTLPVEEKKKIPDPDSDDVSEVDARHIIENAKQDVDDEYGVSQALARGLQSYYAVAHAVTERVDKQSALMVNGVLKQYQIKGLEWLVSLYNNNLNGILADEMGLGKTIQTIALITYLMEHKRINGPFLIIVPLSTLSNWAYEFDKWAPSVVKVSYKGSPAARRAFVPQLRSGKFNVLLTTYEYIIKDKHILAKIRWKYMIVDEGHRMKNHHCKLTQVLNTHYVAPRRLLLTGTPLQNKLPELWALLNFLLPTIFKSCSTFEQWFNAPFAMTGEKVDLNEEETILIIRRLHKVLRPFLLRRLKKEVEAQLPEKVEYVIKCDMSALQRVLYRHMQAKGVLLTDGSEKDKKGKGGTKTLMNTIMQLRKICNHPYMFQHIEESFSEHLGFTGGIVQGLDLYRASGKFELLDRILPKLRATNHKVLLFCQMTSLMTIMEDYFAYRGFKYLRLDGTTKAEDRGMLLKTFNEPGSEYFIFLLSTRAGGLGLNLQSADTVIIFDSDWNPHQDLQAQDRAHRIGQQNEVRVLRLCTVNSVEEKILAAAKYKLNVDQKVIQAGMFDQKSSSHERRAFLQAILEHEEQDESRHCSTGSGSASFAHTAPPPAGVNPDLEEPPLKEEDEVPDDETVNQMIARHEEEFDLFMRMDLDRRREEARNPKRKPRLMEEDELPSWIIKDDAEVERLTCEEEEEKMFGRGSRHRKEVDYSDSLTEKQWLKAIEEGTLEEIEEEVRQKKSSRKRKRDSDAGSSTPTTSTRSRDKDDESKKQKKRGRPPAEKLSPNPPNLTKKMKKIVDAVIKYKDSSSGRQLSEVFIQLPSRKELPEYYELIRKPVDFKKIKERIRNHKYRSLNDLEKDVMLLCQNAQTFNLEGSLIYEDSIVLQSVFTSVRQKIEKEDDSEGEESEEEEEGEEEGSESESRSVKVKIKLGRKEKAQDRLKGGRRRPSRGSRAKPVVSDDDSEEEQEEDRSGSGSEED

| IC50 (BRG-1) [µM] | Emax (BRG-1) [%] | BRM Max % Inhibition (BRM) [%] | IC50 (BRM) [µM] | IC50 (BRG-1; 30 nM BRG-1, 400 μM ATP) [µM] | Emax (BRG-1; 30 nM BRG-1, 400 μM ATP) [%] | BRM Max % Inhibition (BRM; 30 nM BRM, 400 μM ATP) [%] | IC50 (BRM; 30 nM BRM, 400 μM ATP) [µM] | SMILES |
| --- | --- | --- | --- | --- | --- | --- | --- | --- |
| > 5 | > 90 | >90 | 0.1 to 1 | – | – | – | – | C[C@@H]1CN(c2cccc(-c3csc(NC(=O)CNC(=O)c4cccc([C@]5(C(F)F)CCCO5)c4)n3)c2)C[C@H](C)O1 [Compound 291, 3-((S)-2-(difluoromethyl)tetrahydrofuran-2-yl)-N-(2-((4-(3-((cis)-2,6-dimethylmorpholino)phenyl)thiazol-2-yl)amino)-2-oxoethyl)benzamide] |
| – | – | – | – | 1 to 5 | > 95 | >95 | 0.1 to 1 | CC1(C#N)CCOc2ccc(C(=O)NCC(=O)Nc3nc(-c4cccc(C5(F)COC5)c4)cs3)cc21 (stereo in doubt) [Compound 422, (S)-4-cyano-N-(2-((4-(3-(3-fluorooxetan-3-yl)phenyl)thiazol-2-yl)amino)-2-oxoethyl)-4-methylchromane-6-carboxamide] |
| < 0.1 | > 95 | >95 | < 0.1 | – | – | – | – | C[C@@H]1CN(c2cccc(-c3csc(NC(=O)CNC(=O)c4ccc5c(c4)[C@](C)(F)COC5)n3)n2)C[C@H](C)O1 [Compound 409, (S)-N-(2-((4-(6-((cis)-2,6-dimethylmorpholino)pyridin-2-yl)thiazol-2-yl)amino)-2-oxoethyl)-4-fluoro-4-methylisochromane-6-carboxamide] |
| 0.1 to 1 | > 95 | >95 | < 0.1 | – | – | – | – | C[C@@]1(F)COCc2ccc(C(=O)NCC(=O)Nc3nc(-c4cccc(C(F)F)c4)cs3)cc21 [Compound 341, (S)-N-(2-((4-(3-(difluoromethyl)phenyl)thiazol-2-yl)amino)-2-oxoethyl)-4-fluoro-4-methylisochromane-6-carboxamide] |
| > 5 | > 80 | >80 | 0.1 to 1 | – | – | – | – | C[C@@H]1CN(c2cccc(-c3csc(NC(=O)CNC(=O)c4ccc5c(c4)C4(CCO5)COC4)n3)n2)C[C@H](C)O1 [Compound 381, N-(2-((4-(6-((cis)-2,6-dimethylmorpholino)pyridin-2-yl)thiazol-2-yl)amino)-2-oxoethyl)spiro[chromane-4,3′-oxetane]-6-carboxamide] |
| < 0.1 | > 95 | >95 | < 0.1 | – | – | – | – | C[C@@]1(C#N)COCc2ccc(C(=O)NCC(=O)Nc3nc(-c4cc(F)c5c(c4)OCO5)cs3)cc21 [Compound 339, (R)-4-cyano-N-(2-((4-(7-fluorobenzo[d][1,3]dioxol-5-yl)thiazol-2-yl)amino)-2-oxoethyl)-4-methylisochromane-6-carboxamide] |
| – | – | – | – | > 5 | > 80 | >80 | 0.1 to 1 | C[C@@H]1CN(c2cccc(-c3csc(NC(=O)CNC(=O)c4cccc([C@H]5COC[C@H]5O)c4)n3)c2)C[C@H](C)O1 (relative stereo) [Compound 424, N-(2-((4-(3-((cis)-2,6-dimethylmorpholino)phenyl)thiazol-2-yl)amino)-2-oxoethyl)-3-((cis)-4-hydroxytetrahydrofuran-3-yl)benzamide] |
| – | – | – | – | 0.1 to 1 | > 95 | >95 | < 0.1 | Cn1ccc2ccc(-c3csc(NC(=O)CNC(=O)c4ccc5c(c4)[C@@](C)(C#N)CCO5)n3)cc2c1=O [Compound 433, (S)-4-cyano-4-methyl-N-(2-((4-(2-methyl-1-oxo-1,2-dihydroisoquinolin-7-yl)thiazol-2-yl)amino)-2-oxoethyl)chromane-6-carboxamide] |
| 1 to 5 | > 95 | >95 | 0.1 to 1 | – | – | – | – | C[C@@H]1CN(c2cccc(-c3csc(NC(=O)CNC(=O)c4ccc5c(c4)[C@](F)(C#N)COC5)n3)n2)C[C@H](C)O1 (single isomer, unassigned) [Compound 298] |

Further lines, the molecule ahead of its results:

| SMILES | IC50 (BRG-1) [µM] | Emax (BRG-1) [%] | BRM Max % Inhibition (BRM) [%] | IC50 (BRM) [µM] | IC50 (BRG-1; 30 nM BRG-1, 400 μM ATP) [µM] | Emax (BRG-1; 30 nM BRG-1, 400 μM ATP) [%] | BRM Max % Inhibition (BRM; 30 nM BRM, 400 μM ATP) [%] | IC50 (BRM; 30 nM BRM, 400 μM ATP) [µM] |
| --- | --- | --- | --- | --- | --- | --- | --- | --- |
| Cc1cc(-c2cccc(-c3csc(NC(=O)CNC(=O)c4ccc(C)c(S(=O)(=O)C(C)C)c4)n3)n2)ncn1 [Compound 110, 3-isopropylsulfonyl-4-methyl-N-[2-[[4-[6-(6-methylpyrimidin-4-yl)-2-pyridyl]thiazol-2-yl]amino]-2-oxo-ethyl]benzamide] | 0.1 to 1 | > 80 | >95 | < 0.1 | – | – | – | – |
| O=C(CNC(=O)c1ccc2c(c1)[C@](F)(C(F)F)COC2)Nc1nc(-c2cc(F)cc(N3CCC3)c2)cs1 [Compound 276, (R)-N-(2-((4-(3-(azetidin-1-yl)-5-fluorophenyl)thiazol-2-yl)amino)-2-oxoethyl)-4-(difluoromethyl)-4-fluoroisochromane-6-carboxamide] | < 0.1 | > 95 | >95 | < 0.1 | – | – | – | – |
| C[C@@H]1CN(c2cccc(-c3csc(NC(=O)CNC(=O)c4ccc5c(c4)[C@@](C)(C#N)CCO5)n3)c2)C[C@H](C)O1 [Compound 255, (4S)-4-cyano-N-[2-[[4-[3-[(cis)-2,6-dimethylmorpholin-4-yl]phenyl]thiazol-2-yl]amino]-2-oxo-ethyl]-4-methyl-chromane-6-carboxamide] | > 5 | > 40 | >70 | 1 to 5 | – | – | – | – |
| C[C@@H]1CN(c2cccc(-c3csc(NC(=O)CNC(=O)c4cccc(C5(F)COC5)c4)n3)c2)C[C@H](C)O1 [Compound 183, N-(2-((4-(3-((cis)-2,6-dimethylmorpholino)phenyl)thiazol-2-yl)amino)-2-oxoethyl)-3-(3-fluorooxetan-3-yl)benzamide] | 1 to 5 | > 70 | >90 | 0.1 to 1 | – | – | – | – |
| CC1(CN)CCc2ccc(C(=O)NCC(=O)Nc3nc(-c4cccc(-c5ccncc5)c4)cs3)cc21 (stereo not drawn) [Compound 101] | 1 to 5 | > 70 | >90 | 0.1 to 1 | – | – | – | – |
| C[C@@H]1CN(c2cccc(-c3csc(NC(=O)CNC(=O)c4ccc5c(c4)[C@](C)(CO)CO5)n3)n2)C[C@H](C)O1 (single isomer, unassigned) [Compound 132] | > 5 | > 50 | >80 | 0.1 to 1 | – | – | – | – |
| C[C@@H]1CN(c2cccc(-c3csc(NC(=O)CNC(=O)c4ccnc(C(C)(C)CO)c4)n3)c2)C[C@H](C)O1 [Compound 139, N-[2-[[4-[3-[(cis)-2,6-dimethylmorpholin-4-yl]phenyl]thiazol-2-yl]amino]-2-oxo-ethyl]-2-(2-hydroxy-1,1-dimethyl-ethyl)pyridine-4-carboxamide] | 1 to 5 | > 70 | >95 | 0.1 to 1 | – | – | – | – |
| Cn1cnc2ccc(-c3csc(NC(=O)CNC(=O)c4ccc5c(c4)[C@](C)(CO)CC5)n3)cc21 [Compound 175, (R)-3-(hydroxymethyl)-3-methyl-N-(2-((4-(1-methyl-1H-benzo[d]imidazol-6-yl)thiazol-2-yl)amino)-2-oxoethyl)-2,3-dihydro-1H-indene-5-carboxamide] | 1 to 5 | > 60 | >90 | 0.1 to 1 | – | – | – | – |
| C[C@@H]1CN(c2cccc(-c3csc(NC(=O)CNC(=O)c4ccc5c(c4)[C@](C)(C#N)COC5)n3)c2)C[C@H](C)O1 [Compound 254, (R)-4-cyano-N-(2-((4-(3-((cis)-2,6-dimethylmorpholino)phenyl)thiazol-2-yl)amino)-2-oxoethyl)-4-methylisochroman-6-carboxamide] | < 0.1 | > 95 | >95 | < 0.1 | – | – | – | – |
